One data set deals with NCI-H1975. Kind of data set: Antitumor activity against human NCI-H1975 cells harboring EGFR L858R/T790M mutant xenografted in Balb/c nude mouse assessed as in tumor growth inhibition at 10 mg/kg, po administered twice daily measured after 14 days. It counts as functional. Conditions: NCI-H1975, 336 h, time 14 day, read-out: TGI. (In xenograft studies the graft and the host belong to different species.)

The target of data set [1] is T1, Glucocorticoid receptor (Homo sapiens) (UniProt P04150).
T1 sequence (whole entry): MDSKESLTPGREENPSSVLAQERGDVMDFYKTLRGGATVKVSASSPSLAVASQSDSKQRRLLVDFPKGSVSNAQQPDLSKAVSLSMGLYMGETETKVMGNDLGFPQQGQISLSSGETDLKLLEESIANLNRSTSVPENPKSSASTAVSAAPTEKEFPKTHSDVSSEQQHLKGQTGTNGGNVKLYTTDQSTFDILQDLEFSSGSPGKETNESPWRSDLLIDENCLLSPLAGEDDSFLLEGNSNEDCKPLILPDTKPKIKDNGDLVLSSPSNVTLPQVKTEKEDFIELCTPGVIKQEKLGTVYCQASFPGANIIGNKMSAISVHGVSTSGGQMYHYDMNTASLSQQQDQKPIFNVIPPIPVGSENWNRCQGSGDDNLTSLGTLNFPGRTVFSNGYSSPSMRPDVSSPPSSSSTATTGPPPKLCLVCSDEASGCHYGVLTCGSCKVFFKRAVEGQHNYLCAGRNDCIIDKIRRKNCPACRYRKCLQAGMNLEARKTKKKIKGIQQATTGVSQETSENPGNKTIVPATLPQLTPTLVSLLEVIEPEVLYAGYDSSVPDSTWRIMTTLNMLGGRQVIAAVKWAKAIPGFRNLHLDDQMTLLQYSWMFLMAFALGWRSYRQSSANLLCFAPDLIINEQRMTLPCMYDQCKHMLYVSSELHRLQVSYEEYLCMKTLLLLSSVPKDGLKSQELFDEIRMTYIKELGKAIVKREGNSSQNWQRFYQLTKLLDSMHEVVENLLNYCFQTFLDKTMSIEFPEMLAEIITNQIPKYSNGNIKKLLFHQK
Kind of data set: Inhibition of glucocorticoid receptor (unknown origin) at 10 uM relative to control.

The next data set deals with NCI-H292. Kind of data set: Antiproliferative activity against human NCI-H292 cells assessed as cell growth inhibition. The data set is classed as functional.
Another data set concerns SU-DHL-6. The experiment in a line: Antiproliferative activity against human SU-DHL-6 cells assessed as cell growth inhibition. It counts as functional.
Data set [2] can be described thus: Clearance in CD1 mouse at 1 mg/kg, iv administered as single dose measured after 24 hrs by LC-MS/MS analysis. Conditions: in vivo. It counts as ADME, organism-based.
Data set [3] is described as follows: Tlast in CD1 mouse at 10 mg/kg, po administered as single dose measured after 24 hrs by LC-MS/MS analysis. The data set is classed as ADME, organism-based. Conditions: in vivo.
Data set [4] is described as follows: Oral bioavailability in CD1 mouse at 10 mg/kg administered as single dose measured after 24 hrs by LC-MS/MS analysis. Conditions: in vivo. It counts as ADME, organism-based.
Data set [5] has as its system BaF3. Kind of data set: Antitumor activity against mouse BaF3 cells harboring EGFR L858R/C797S mutant allografted in Balb/c nude mouse assessed as in tumor growth inhibition at 10 mg/kg, po administered twice daily measured after 6 days. The data set is classed as functional. The note with it: BaF3, 144 h, time 6 day, read-out: TGI.
For data set [6], the system named is BaF3. Kind of data set: Antitumor activity against mouse BaF3 cells harboring EGFR L858R/C797S mutant allografted in Balb/c nude mouse assessed as in tumor growth inhibition at 10 mg/kg, po administered twice daily measured on day 20. It counts as functional. The note with it: BaF3, 480 h, time 20 day, read-out: TGI.
Data set [7] in a line: Toxicity in Balb/c nude mouse xenografted with human NCI-H1975 cells harboring EGFR L858R/T790M mutant assessed as change in body weight at 10 mg/kg, po administered twice daily measured after 14 days. It counts as organism-based. The note with it: in vivo, 336 h, time 14 day.
Data set [8] addresses Epidermal growth factor receptor (Homo sapiens, UniProt P00533, C797S/L858R/T790M).
Data set [9] concerns the target Epidermal growth factor receptor (Homo sapiens, UniProt P00533, C797S/L858R).

Structures are written as SMILES.

Sequence of Epidermal growth factor receptor (Homo sapiens, UniProt P00533, C797S/L858R) (P00533 25-1210 C797S/L858R limits assumed): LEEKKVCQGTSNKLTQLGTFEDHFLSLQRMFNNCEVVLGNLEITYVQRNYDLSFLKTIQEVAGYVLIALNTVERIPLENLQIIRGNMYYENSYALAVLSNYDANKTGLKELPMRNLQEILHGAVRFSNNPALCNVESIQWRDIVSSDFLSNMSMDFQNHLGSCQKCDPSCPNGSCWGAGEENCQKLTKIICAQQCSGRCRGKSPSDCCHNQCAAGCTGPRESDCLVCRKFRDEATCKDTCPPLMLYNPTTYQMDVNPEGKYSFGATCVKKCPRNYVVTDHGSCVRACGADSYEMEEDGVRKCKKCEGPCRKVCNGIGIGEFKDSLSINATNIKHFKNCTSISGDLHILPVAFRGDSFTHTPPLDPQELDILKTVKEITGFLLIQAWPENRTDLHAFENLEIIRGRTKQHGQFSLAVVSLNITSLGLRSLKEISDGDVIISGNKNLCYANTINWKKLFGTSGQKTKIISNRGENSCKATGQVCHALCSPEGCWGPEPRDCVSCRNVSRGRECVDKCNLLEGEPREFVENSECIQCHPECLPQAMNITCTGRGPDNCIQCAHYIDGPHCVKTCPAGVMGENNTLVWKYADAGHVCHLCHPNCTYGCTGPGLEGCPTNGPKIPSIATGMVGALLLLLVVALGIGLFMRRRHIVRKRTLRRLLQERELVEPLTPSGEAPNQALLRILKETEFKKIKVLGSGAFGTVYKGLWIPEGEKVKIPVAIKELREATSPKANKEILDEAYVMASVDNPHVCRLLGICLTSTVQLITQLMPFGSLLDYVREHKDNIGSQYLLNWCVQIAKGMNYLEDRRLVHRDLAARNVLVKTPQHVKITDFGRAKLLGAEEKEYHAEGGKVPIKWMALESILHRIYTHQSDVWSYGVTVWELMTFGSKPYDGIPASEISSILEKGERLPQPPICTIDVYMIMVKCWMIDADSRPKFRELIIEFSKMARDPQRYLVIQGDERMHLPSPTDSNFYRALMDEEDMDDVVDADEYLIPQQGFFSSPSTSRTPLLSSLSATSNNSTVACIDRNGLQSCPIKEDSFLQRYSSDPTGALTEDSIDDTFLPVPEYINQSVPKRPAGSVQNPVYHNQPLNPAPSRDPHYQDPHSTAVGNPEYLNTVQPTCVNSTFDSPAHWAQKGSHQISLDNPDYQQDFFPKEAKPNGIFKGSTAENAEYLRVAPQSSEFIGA
Sequence of Epidermal growth factor receptor (Homo sapiens, UniProt P00533, C797S/L858R/T790M) (P00533 25-1210 T790M/C797S/L858R limits assumed): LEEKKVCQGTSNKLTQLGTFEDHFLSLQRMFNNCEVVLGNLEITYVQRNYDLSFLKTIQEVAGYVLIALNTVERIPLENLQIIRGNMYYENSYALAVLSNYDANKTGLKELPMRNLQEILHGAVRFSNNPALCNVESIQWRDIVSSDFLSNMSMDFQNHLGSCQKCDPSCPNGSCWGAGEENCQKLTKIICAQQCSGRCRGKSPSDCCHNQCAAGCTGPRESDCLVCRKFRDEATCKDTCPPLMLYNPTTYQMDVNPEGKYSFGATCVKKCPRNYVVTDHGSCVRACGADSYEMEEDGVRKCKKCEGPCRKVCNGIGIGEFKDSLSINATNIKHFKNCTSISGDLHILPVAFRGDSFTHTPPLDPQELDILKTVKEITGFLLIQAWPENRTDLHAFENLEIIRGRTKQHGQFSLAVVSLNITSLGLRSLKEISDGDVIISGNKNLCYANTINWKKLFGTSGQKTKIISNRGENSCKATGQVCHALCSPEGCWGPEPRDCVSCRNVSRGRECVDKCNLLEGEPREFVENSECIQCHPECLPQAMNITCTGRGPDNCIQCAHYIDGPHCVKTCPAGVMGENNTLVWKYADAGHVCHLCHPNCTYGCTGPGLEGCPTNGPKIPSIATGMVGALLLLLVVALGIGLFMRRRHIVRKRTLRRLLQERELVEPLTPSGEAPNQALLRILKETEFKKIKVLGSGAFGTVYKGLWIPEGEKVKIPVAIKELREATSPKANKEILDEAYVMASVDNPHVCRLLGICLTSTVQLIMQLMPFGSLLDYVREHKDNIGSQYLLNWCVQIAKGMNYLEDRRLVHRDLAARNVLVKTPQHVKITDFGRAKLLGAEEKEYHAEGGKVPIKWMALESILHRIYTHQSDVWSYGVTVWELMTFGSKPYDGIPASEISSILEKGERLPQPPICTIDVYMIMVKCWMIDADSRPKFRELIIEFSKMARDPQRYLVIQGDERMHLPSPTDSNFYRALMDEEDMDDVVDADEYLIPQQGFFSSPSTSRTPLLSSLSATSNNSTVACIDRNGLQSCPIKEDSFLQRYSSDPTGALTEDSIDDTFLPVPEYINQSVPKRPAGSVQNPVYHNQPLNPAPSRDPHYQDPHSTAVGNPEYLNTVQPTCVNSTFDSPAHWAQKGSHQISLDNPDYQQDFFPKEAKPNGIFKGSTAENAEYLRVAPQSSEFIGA

Turning to `Cc1c(C#Cc2ccc(CN3CCC(CO)CC3)cc2)cc(C(F)F)c2cn(C(C(=O)Nc3nccs3)c3ncn4c3CCC43CC3)nc12` (configuration not stated), the inhibition in vivo at 10 mg/kg in the data set on NCI-H1975 is 69%; with BaF3 [5] it was 84%; in the data set on BaF3 [6] it was 70%. Moreover, the inhibition in data set [1] came to 90%. Moreover, the GI50 in the data set on NCI-H292 turned out to be 350 nM; in the data set on SU-DHL-6, 1460 nM. Moreover, the clearance in data set [2] was found to be 20 mL/min/kg. The molecule also returned a Tlast in [3] of 24 h. In data set [4], this molecule showed a bioavailability of 22%. Also, the Activity entry in data set [7] was “Non-Toxic”. The IC50 amounted to 2 nM in [8] and 20 nM in data set [9].

What is called inhibition is the percentage by which the read-out fell short of the control. Read a low inhibition as little suppression. The GI50 is the concentration that inhibits growth by half. By clearance is commonly meant a measure of how efficiently the substance is removed, as volume per time. Read a low clearance as inefficient removal. Usually bioavailability stands for the share of a dose that reaches the circulation, judged against a reference dose that is usually intravenous. A higher bioavailability goes with good availability. Usually IC50 stands for the midpoint of a concentration-inhibition curve. A high value points to a need for much substance.

For the origin of these results see ChEMBL document CHEMBL5113538, “Discovery of Novel Allosteric EGFR L858R Inhibitors for the Treatment of Non-Small-Cell Lung Cancer as a Single Agent or in Combination with Osimertinib” (J Med Chem, 2022).
